Measurements published in ChEMBL document CHEMBL1142468, “Discovery, SAR and X-ray structure of 1H-benzimidazole-5-carboxylic acid cyclohexyl-methyl-amides as inhibitors of inducible T-cell kinase (Itk)” (Bioorg Med Chem Lett, 2008).
Calls of active or inactive are those of the source. The rule behind the calls is not given here.

Columns and labels:
[1] = molecular target: Insulin receptor (Homo sapiens, UniProt P06213); assay: Inhibition of IRK
[2] = molecular target: T1, Tyrosine-protein kinase ITK/TSK (Homo sapiens, UniProt Q08881); assay: Inhibition of ITK by DELFIA assay
T1 sequence (Q08881 whole entry): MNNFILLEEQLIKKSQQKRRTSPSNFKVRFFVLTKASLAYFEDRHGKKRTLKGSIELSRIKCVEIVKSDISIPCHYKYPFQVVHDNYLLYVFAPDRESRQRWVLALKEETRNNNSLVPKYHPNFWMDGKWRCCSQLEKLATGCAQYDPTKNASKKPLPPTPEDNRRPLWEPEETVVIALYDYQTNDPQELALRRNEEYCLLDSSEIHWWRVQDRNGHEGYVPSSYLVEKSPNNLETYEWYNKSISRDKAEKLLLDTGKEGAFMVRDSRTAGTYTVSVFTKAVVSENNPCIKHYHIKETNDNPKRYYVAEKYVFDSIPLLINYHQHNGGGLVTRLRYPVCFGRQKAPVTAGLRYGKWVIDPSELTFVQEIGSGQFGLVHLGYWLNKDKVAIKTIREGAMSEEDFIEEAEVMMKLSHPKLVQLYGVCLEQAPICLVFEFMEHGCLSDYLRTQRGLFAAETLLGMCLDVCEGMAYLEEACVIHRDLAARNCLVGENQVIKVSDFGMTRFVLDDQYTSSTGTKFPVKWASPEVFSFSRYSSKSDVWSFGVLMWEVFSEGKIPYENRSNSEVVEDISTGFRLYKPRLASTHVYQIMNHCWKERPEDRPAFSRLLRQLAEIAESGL

[3] = system: T-cell; assay: Inhibition of anti-CD3/anti-CD28-induced IL2 secretion in human CD4+ T cells
[4] = Inhibition of anti-CD3-induced IL2 secretion in mouse TH1 cells
[5] = system: Splenocyte; assay: Inhibition of anti-CD3-induced IL2 secretion in mouse splenocytes
[6] = molecular target: Tyrosine-protein kinase BTK (Homo sapiens) (UniProt Q06187); assay: Inhibition of Btk
[7] = molecular target: Tyrosine-protein kinase Lyn (Homo sapiens) (UniProt P07948); assay: Inhibition of Lyn kinase
[8] = molecular target: Tyrosine-protein kinase SYK (Homo sapiens) (UniProt P43405); assay: Inhibition of Syk
[9] = system: Mus musculus; assay: Inhibition of anti-CD3-induced IL2 production in sc dosed mouse; format: functional, organism-based
[10] = molecular target: T1, Tyrosine-protein kinase ITK/TSK; assay: Inhibition of human ITK expressed in chicken DT40 cells assessed as B cell receptor-stimulated calcium influx by FLIPR assay; format: cell-based

Insulin receptor, sequence (P06213 28-758 limits assumed): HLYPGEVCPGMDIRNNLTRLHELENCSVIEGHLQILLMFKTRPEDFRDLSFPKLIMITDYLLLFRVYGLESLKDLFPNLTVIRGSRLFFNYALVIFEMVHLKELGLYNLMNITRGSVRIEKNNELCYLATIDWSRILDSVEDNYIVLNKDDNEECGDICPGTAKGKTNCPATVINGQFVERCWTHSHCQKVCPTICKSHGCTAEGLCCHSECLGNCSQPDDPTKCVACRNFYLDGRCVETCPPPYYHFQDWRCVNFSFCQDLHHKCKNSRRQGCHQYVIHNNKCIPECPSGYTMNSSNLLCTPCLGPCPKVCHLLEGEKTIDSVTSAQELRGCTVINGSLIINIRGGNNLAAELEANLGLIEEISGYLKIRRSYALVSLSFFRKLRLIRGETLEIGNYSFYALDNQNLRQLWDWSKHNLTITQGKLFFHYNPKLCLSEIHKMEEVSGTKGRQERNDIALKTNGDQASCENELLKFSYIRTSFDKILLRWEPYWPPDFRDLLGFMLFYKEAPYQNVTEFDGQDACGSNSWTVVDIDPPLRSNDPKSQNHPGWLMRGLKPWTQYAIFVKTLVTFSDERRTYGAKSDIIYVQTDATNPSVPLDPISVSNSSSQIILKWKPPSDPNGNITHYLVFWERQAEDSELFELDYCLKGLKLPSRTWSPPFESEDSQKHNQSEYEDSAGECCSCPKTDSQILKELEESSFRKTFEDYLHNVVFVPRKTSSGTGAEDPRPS
Insulin receptor, sequence (P06213 763-1382 limits assumed): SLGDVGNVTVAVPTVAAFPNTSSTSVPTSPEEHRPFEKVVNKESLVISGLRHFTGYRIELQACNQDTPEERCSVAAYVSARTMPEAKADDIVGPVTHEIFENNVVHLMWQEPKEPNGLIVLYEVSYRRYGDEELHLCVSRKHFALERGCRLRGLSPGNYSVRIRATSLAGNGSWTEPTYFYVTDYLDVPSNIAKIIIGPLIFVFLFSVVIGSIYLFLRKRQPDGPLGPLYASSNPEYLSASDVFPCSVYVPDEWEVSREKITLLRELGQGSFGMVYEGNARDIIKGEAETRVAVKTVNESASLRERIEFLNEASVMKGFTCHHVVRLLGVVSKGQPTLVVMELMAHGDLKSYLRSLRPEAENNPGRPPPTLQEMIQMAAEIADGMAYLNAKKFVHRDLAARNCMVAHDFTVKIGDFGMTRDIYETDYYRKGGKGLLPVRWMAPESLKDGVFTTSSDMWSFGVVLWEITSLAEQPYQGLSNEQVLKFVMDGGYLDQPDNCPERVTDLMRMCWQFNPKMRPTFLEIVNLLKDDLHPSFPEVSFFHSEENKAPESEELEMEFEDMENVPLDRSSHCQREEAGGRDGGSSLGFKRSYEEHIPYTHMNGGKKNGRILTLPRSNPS
Tyrosine-protein kinase Lyn (Homo sapiens), sequence (P07948 2-512 limits assumed): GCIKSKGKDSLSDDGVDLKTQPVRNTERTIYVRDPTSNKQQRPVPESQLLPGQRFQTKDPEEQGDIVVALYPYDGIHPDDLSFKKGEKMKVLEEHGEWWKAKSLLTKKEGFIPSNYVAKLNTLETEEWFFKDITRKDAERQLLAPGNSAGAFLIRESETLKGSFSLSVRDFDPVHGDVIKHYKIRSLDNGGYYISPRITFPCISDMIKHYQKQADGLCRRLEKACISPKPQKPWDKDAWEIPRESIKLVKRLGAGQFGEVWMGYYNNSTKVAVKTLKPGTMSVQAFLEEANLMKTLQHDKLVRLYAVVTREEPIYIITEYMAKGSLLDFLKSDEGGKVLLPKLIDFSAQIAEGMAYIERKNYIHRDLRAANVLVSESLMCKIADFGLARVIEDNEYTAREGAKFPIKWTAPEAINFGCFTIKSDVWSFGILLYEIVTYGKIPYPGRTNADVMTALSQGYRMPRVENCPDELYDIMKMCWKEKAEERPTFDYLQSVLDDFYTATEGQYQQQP
Tyrosine-protein kinase BTK (Homo sapiens), sequence (Q06187 whole entry): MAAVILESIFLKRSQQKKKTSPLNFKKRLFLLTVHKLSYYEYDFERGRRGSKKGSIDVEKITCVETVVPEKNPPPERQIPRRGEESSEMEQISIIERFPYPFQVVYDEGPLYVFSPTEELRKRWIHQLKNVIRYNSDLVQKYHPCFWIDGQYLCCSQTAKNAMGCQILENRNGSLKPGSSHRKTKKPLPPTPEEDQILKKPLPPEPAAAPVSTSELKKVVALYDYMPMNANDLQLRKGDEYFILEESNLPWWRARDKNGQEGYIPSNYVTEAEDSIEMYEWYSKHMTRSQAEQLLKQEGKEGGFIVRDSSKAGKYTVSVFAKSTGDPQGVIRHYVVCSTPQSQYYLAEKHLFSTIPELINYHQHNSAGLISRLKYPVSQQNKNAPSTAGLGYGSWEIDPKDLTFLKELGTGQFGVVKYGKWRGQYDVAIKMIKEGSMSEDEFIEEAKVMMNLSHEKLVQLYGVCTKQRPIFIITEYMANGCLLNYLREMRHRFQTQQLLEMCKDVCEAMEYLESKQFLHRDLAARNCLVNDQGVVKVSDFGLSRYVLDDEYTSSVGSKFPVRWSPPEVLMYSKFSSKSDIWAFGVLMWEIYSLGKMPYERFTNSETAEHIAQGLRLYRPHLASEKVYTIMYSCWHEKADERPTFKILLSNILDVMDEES

Row | SMILES | IC50 [1] [µM] | IC50 [2] [µM] | other results
1 | CNc1ccc2c(c1)nc(NC(=O)c1ccc(C#N)cc1)n2CCC(N)=O |  | 0.076 | 
2 | CN(C(=O)C1CCCCC1)c1ccc2c(c1)nc(NC(=O)c1ccc(Cl)cc1)n2CCC(N)=O |  |  | IC50 [3]: 4.1 µM; IC50 [4]: 0.44 µM; IC50 [5]: 0.52 µM
3 | CCCCCCCn1c(NC(=O)c2ccc(C#N)cc2)nc2cc(N(C)C(=O)C3CCCCC3)ccc21 |  | 4.5 | 
4 | CNC(=O)c1ccc(C(=O)Nc2nc3cc(N(C)C(=O)C4CCCCC4)ccc3n2CCC(N)=O)cc1 |  | 1.8 | 
5 | CC(=O)c1ccc(C(=O)Nc2nc3cc(N(C)C(=O)C4CCCCC4)ccc3n2CCC(N)=O)cc1 | > 10 |  | 
6 | CN(C(=O)C1CCCCC1)c1ccc2c(c1)nc(CC(=O)c1ccc(Cl)cc1)n2CCc1ccccc1 |  | > 20 | 
7 | CN(C(=O)C1CCCCC1)c1ccc2c(c1)nc(NC(=O)c1cccs1)n2CCC(N)=O |  |  | Activity [6]: inactive; Activity [7]: inactive; Activity [8]: inactive
8 | COCCCn1c(NC(=O)c2ccc(C#N)cc2)nc2cc(N(C)C(=O)C3CCCCC3)ccc21 |  | 0.016 | 
9 | CC(=O)N1CCN(C(=O)c2cc(CSc3cnc(NC(=O)c4ccc(CNC(C)C(C)(C)C)cc4)s3)cc(C)c2C)CC1 (stereo not drawn) |  |  | Activity [9]: Dose-dependent effect
10 | CN(C(=O)C1CCCCC1)c1ccc2c(c1)nc(NC(=O)c1ccc(C#N)cc1)n2CC(N)=O |  | 0.073 | 
11 | CC(C)C(=O)N(C)c1ccc2c(c1)nc(NC(=O)c1ccc(C#N)cc1)n2CCC(N)=O |  | 0.22 | 
12 | CN(C(=O)C1CCCCC1)c1ccc2c(c1)nc(NC(=O)c1ccc(C#N)cc1)n2CCc1ccc(Cl)cc1Cl |  | 2 | 
13 | CNC(=O)CCn1c(NC(=O)c2ccc(C#N)cc2)nc2cc(N(C)C(=O)C3CCCCC3)ccc21 |  | 0.009 | 
14 | CC(C(=O)C1CCCCC1)c1ccc2c(c1)nc(CC(=O)c1ccc(C#N)cc1)n2CCC(N)=O (stereo not drawn) |  | 0.003 | 
15 | CN(C(=O)C1CCCCC1)c1ccc2c(c1)nc(NC(=O)c1ccc(C#N)cc1)n2CCCn1ccnc1 |  | 0.004 | IC50 [10]: 0.51 µM; IC50 [3]: 0.65 µM; IC50 [4]: 0.35 µM
16 | CC(C)n1c(NC(=O)c2ccc(C#N)cc2)nc2cc(N(C)C(=O)C3CCCCC3)ccc21 |  | 0.035 | 

The next lines start with results.

Row | IC50 [1] [µM] | IC50 [2] [µM] | SMILES | other results
17 | 0.55 |  | Cc1cccc(C(=O)Nc2nc3cc(N(C)C(=O)C4CCCCC4)ccc3n2CCC(N)=O)c1 | 
18 |  | > 20 | CN(C(=O)C1CCCCC1)c1ccc2c(c1)nc(N)n2CCC(N)=O | 
19 | > 10 |  | Cc1ccc(C(=O)Nc2nc3cc(N(C)C(=O)C4CCCCC4)ccc3n2CCC(N)=O)cc1 | 
20 | > 10 |  | COc1ccc(C(=O)Nc2nc3cc(N(C)C(=O)C4CCCCC4)ccc3n2CCC(N)=O)cc1 | 
21 | 0.095 | 0.009 | CN(C(=O)C1CCCCC1)c1ccc2c(c1)nc(NC(=O)c1cccc(Br)c1)n2CCC(N)=O | 
22 | 0.125 |  | CN(C(=O)C1CCCCC1)c1ccc2c(c1)nc(NC(=O)c1cccc(C#N)c1)n2CCC(N)=O | 
23 | > 10 | 0.003 | CN(C(=O)C1CCCCC1)c1ccc2c(c1)nc(NC(=O)c1ccc(Br)cc1)n2CCC(N)=O | 
24 | 0.55 |  | COc1cccc(C(=O)Nc2nc3cc(N(C)C(=O)C4CCCCC4)ccc3n2CCC(N)=O)c1 | 
